Results as given in patent publication US8048881B2, “Pyrimidine derivatives and their use as P2Y12 receptor antagonists” (Actelion Pharmaceuticals Ltd., priority 2005, dated 2011).
Where a name gives a salt, the structure may show the parent alone.

Molecular target: T1, human P2Y12 receptor (Homo sapiens, UniProt Q9H244)
T1 construct: expressed in transfected cells; host or cells: Chinese Hamster Ovary (CHO) cells
Test: P2Y12 receptor binding assay
Conditions: CHO cells with recombinant expression of the human P2Y12 receptor; tritium-labeled 2-methyl-S-ADP; incubation at room temperature for 2 hours
Experimental: P2Y12 Receptor Binding Assay
Chinese Hamster Ovary (CHO) cells with recombinant expression of the human P2Y12 receptor were cultured in 24 well cell-culture plates. Cells were washed three times with binding buffer (50 mM Tris pH 7.4, 100 mM NaCl, 1 mM EDTA, 0.5% BSA). The cells were then incubated with 0.5 ml per well binding buffer containing tritium-labeled 2-methyl-thio-adenosine 5′-diphosphate (2-methyl-S-ADP) (between 100'000 and 300'000 dpm per well) and various concentrations of test compounds. After incubation at room temperature for 2 hours, cells were washed three times with binding buffer. Then, cells were solubilized by addition of 0.5 ml solubilization buffer (SDS, NaOH, EDTA). The content of each well was then transferred into beta-counter vials and 2.0 ml of Ultima Gold Scintillation liquid was added.

T1 sequence (Q9H244 whole entry): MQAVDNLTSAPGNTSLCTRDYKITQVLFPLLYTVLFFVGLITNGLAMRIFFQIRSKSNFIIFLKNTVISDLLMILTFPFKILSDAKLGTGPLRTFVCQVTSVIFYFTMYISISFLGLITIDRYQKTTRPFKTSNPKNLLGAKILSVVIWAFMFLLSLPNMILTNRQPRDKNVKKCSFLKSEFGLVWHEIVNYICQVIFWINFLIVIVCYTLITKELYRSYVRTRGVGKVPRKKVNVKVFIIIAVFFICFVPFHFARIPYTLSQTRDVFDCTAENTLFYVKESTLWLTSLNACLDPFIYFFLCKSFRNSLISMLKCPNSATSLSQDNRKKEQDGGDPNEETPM

Point of comparison: CCOC(=O)N1CCN(C(=O)C(Cc2cccc(OCC(=O)O)c2)NC(=O)c2cc(OC3CCCC3)nc(-c3ccccc3)n2)CC1 (centres unmarked) [Example 31, 4-{3-(3-carboxymethoxy-phenyl)-2-[(6-cyclopentyloxy-2-phenyl-pyrimidine-4-carbonyl)-amino]-propionyl}-piperazine-1-carboxylic acid ethyl ester], IC50 592 nM. Against it:
- C#Cc1cc(C(=O)N[C@@H](CCC(=O)O)C(=O)N2CCN(C(=O)OCC)CC2)nc(-c2ccccc2)n1 [Example 258, 4-{(S)-4-carboxy-2-[(6-ethynyl-2-phenyl-pyrimidine-4-carbonyl)-amino]-butyryl}-piperazine-1-carboxylic acid ethyl ester] — 2.3-fold lower, 253 nM
- CCOC(=O)N1CCN(C(=O)[C@H](CCC(=O)O)NC(=O)c2cc(-c3ccc[n+]([O-])c3)nc(-c3ccccc3)n2)CC1 [Example 418, 4-((S)-4-carboxy-2-{[6-(1-oxy-pyridin-3-yl)-2-phenyl-pyrimidine-4-carbonyl]-amino}-butyryl)-piperazine-1-carboxylic acid ethyl ester] — 4.6-fold lower, 129 nM
- CCOC(=O)N1CCN(C(=O)[C@H](CCC(=O)O)NC(=O)c2cc(SC3CCCC3)nc(-c3ccccc3)n2)CC1 [Example 249, 4-{(S)-4-carboxy-2-[(6-cyclopentylsulfanyl-2-phenyl-pyrimidine-4-carbonyl)-amino]-butyryl}-piperazine-1-carboxylic acid ethyl ester] — 5.9-fold lower, 101 nM
- CCOC(=O)N1CCN(C(=O)[C@H](Cc2ccc(C(=O)O)cc2)NC(=O)c2cc(OC3CCCC3)nc(-c3ccccc3)n2)CC1 [Example 21, 4-{(S)-3-(4-carboxy-phenyl)-2-[(6-cyclopentyloxy-2-phenyl-pyrimidine-4-carbonyl)-amino]-propionyl}-piperazine-1-carboxylic acid ethyl ester] — 2.9-fold lower, 201 nM
- CCOC(=O)N1CCN(C(=O)[C@H](CCC(=O)O)NC(=O)c2cc(-c3cn[nH]c3)nc(-c3ccccc3)n2)CC1 [Example 396, 4-((S)-4-carboxy-2-{[2-phenyl-6-(1H-pyrazol-4-yl)-pyrimidine-4-carbonyl]-amino}-butyryl)-piperazine-1-carboxylic acid ethyl ester] — 8.1-fold lower, 73 nM
- CCOC(=O)N1CCN(C(=O)[C@H](CCC(=O)O)NC(=O)c2cc(SC3CCCCC3)nc(-c3ccccc3)n2)CC1 [Example 251, 4-{(S)-4-carboxy-2-[(6-cyclohexylsulfanyl-2-phenyl-pyrimidine-4-carbonyl)-amino]-butyryl}-piperazine-1-carboxylic acid ethyl ester] — within 1.5-fold, 624 nM
- CCOC(=O)CCNc1cc(C(=O)N[C@@H](CCC(=O)O)C(=O)N2CCN(C(=O)OCC)CC2)nc(-c2ccccc2)n1 [Example 59, 4-((S)-4-carboxy-2-{[6-(2-ethoxycarbonyl-ethylamino)-2-phenyl-pyrimidine-4-carbonyl]-amino}-butyryl)-piperazine-1-carboxylic acid ethyl ester triflate salt] — 2.1-fold lower, 276 nM
- CC(C)OC(=O)N1CCN(C(=O)[C@H](CCC(=O)O)NC(=O)c2cc(OC3CCCC3)nc(-c3ccccc3)n2)CC1 [Example 38, 4-{(S)-4-carboxy-2-[(6-cyclopentyloxy-2-phenyl-pyrimidine-4-carbonyl)-amino]-butyryl}-piperazine-1-carboxylic acid isopropyl ester] — 6.2-fold lower, 95 nM
- CCOC(=O)N1CCN(C(=O)[C@H](CO)NC(=O)c2cc(OC3CCCC3)nc(-c3ccccc3)n2)CC1 [Example 10, 4-{(S)-2-[(6-cyclopentyloxy-2-phenyl-pyrimidine-4-carbonyl)-amino]-3-hydroxy-propionyl}-piperazine-1-carboxylic acid ethyl ester] — 1.9-fold lower, 307 nM
- CCOC(=O)N1CCN(C(=O)[C@H](CCC(=O)O)NC(=O)c2cc(NCC(C)O)nc(-c3ccccc3)n2)CC1 (stereo partly drawn) [Example 231, 4-((S)-4-carboxy-2-{[6-(2-hydroxy-propylamino)-2-phenyl-pyrimidine-4-carbonyl]-amino}-butyryl)-piperazine-1-carboxylic acid ethyl ester] — 3.4-fold lower, 174 nM
- CCOC(=O)N1CCN(C(=O)[C@H](CCC(=O)O)NC(=O)c2cc(N)nc(-c3ccccc3)n2)CC1 [Example 333, 4-{(S)-2-[(6-amino-2-phenyl-pyrimidine-4-carbonyl)-amino]-4-carboxy-butyryl}-piperazine-1-carboxylic acid ethyl ester triflate salt] — 3.7-fold lower, 161 nM
- CCOC(=O)N1CCN(C(=O)[C@H](CCC(=O)O)NC(=O)c2cc(OC3CCCC3)nc(-c3ccccc3)n2)CC1C (stereo partly drawn) [Example 46, 4-{(S)-4-carboxy-2-[(6-cyclopentyloxy-2-phenyl-pyrimidine-4-carbonyl)-amino]-butyryl}-2-methyl-piperazine-1-carboxylic acid ethyl ester] — within 1.5-fold, 510 nM
- CCOC(=O)N1CCN(C(=O)[C@H](CCC(=O)O)NC(=O)c2cc(C(F)(F)F)nc(-c3ccccc3)n2)CC1 [Example 431, 4-{(S)-4-carboxy-2-[(2-phenyl-6-trifluoromethyl-pyrimidine-4-carbonyl)-amino]-butyryl}-piperazine-1-carboxylic acid ethyl ester] — 3.5-fold lower, 170 nM
- CCOC(=O)N1CCN(C(=O)[C@H](CCC(=O)O)NC(=O)c2cc(NC(C)COC)nc(-c3ccccc3)n2)CC1 (stereo partly drawn) [Example 223, 4-((S)-4-carboxy-2-{[6-(2-methoxy-1-methyl-ethylamino)-2-phenyl-pyrimidine-4-carbonyl]-amino}-butyryl)-piperazine-1-carboxylic acid ethyl ester formate salt] — 6.1-fold lower, 97 nM
- CCOC(=O)N1CCN(C(=O)[C@H](CCC(=O)O)NC(=O)c2cc(/C=C/CCO)nc(-c3ccccc3)n2)CC1 [Example 421, 4-((S)-4-carboxy-2-{[6-((E)-4-hydroxy-but-1-enyl)-2-phenyl-pyrimidine-4-carbonyl]-amino}-butyryl)-piperazine-1-carboxylic acid ethyl ester] — 7.9-fold lower, 75 nM
- CCOC(=O)N1CCN(C(=O)[C@H](CCC(=O)O)NC(=O)c2cc(N[C@H]3CC[C@H](O)CC3)nc(-c3ccccc3)n2)CC1 [Example 243, 4-((S)-4-carboxy-2-{[6-(trans-4-hydroxy-cyclohexylamino)-2-phenyl-pyrimidine-4-carbonyl]-amino}-butyryl)-piperazine-1-carboxylic acid ethyl ester] — 2.7-fold lower, 223 nM
